Laboratory results: US6462037B1, “1,4-benzodiazepin-2-ones useful as HIV reverse transcriptase inhibitors” (Bristol-Myers Squibb Pharma Company, priority 1999, dated 2002)
In brackets after ≈: the same amount, converted by molar mass.

Tested on: not given
Experiment: not given
Conditions: not given

Structure (SMILES) | melting point [°C]
COc1cccnc1CN1CC(=O)Nc2ccc(Cl)cc2C1C(F)(F)F (stereo not drawn) [compound 126, 7-Chloro-4-(3-methoxy-2-pyridylmethyl)-1,5-dihydro-5-(trifluoromethyl)-1,4-benzodiazepin-2-one] | 146 to 148
COc1cccc(F)c1CN1CC(=O)Nc2ccc(F)c(F)c2C1C(F)(F)F (stereo not drawn) [compound 132, 6,7-Difluoro-4-(2-fluoro-6-methoxybenzyl)-1,5-dihydro-5-(trifluoromethyl)-1,4-benzodiazepin-2-one] | 168 to 170
O=C1CN(Cc2cccc(F)c2)C(C(F)(F)F)c2cc(Cl)ccc2N1 (stereo not drawn) [compound 142, 7-Chloro-4-(3-fluorobenzyl)-1,5-dihydro-5-(trifluoromethyl)-1,4-benzodiazepin-2-one] | 181 to 182

Continued, values first:

melting point [°C] | Structure (SMILES)
87 to 88 | CCCCCCN1CC(=O)Nc2ccc(Cl)cc2C1C(F)(F)F (stereo not drawn) [compound 107, 7-Chloro-4-hexyl-1,5-dihydro-5-(trifluoromethyl)-1,4-benzodiazepin-2-one]
114 to 115 | CCCCCN1CC(=O)Nc2ccc(Cl)cc2C1C(F)(F)F (stereo not drawn) [compound 108, 7-Chloro-4-pentyl-1,5-dihydro-5-(trifluoromethyl)-1,4-benzodiazepin-2-one]
174 to 176 | CCCCC1(C(F)(F)F)N=CC(=O)Nc2ccc(Cl)cc21 (stereo not drawn) [compound 203, 7-Chloro-5-butyl-1,5-dihydro-5-(trifluoromethyl)-1,4-benzodiazepin-2-one]
86 to 87 | C=CCCCN1CC(=O)Nc2ccc(Cl)cc2C1C(F)(F)F (stereo not drawn) [compound 152, 7-Chloro-4-(4-penten-1-yl)-1,5-dihydro-5-(trifluoromethyl)-1,4-benzodiazepin-2-one]
175 to 178 | O=C1C=NC(C#CC2CC2)(C(F)(F)F)c2cc(F)ccc2N1 (stereo not drawn) [compound 199, 7-Fluoro-5-(cyclopropylethynyl)-1,5-dihydro-5-(trifluoromethyl)-1,4-benzodiazepin-2-one]

Tested on: HIV-1 (RF)
Experiment: HIV RNA assay: microplate based compound evaluation in HIV-1 infected MT-2 cells
Format: cell-based
Conditions: Human immunodeficiency virus 1, MT2, 72 h; HIV-1 (RF) infected MT-2 cells, 3 days of culture; virus inoculum standardised to this value; read-out: IC90 value (concentration of compound required to reduce the HIV RNA level by 90%)
Method: MT-2 and MT-4 cells were maintained in RPMI 1640 supplemented with 5% fetal calf serum (FCS) for MT-2 cells or 10% FCS for MT-4 cells, 2 mM L-glutamine and 50 μg/mL gentamycin, all from Gibco. HIV-1 RF was propagated in MT-4 cells in the same medium. Virus stocks were prepared approximately 10 days after acute infection of MT-4 cells and stored as aliquots at −70° C. Infectious titers of HIV-1 (RF) stocks were 1-3×10^7 PFU (plaque forming units)/mL as measured by plaque assay on MT-2 cells (see below). Each aliquot of virus stock used for infection was thawed only once.
For evaluation of antiviral efficacy, cells to be infected were subcultured one day prior to infection. […]
Cell lysates or purified RNA in 3 M or 5 M GED were mixed with 5 M GED and capture probe to a final guanidinium isothiocyanate concentration of 3 M and a final biotin oligonucleotide concentration of 30 nM. […] Immobilized alkaline phosphatase activity was detected by addition of 100 μL of 0.2 mM 4-methylumbelliferyl phosphate (MUBP, JBL Scientific) in buffer δ (2.5 M diethanolamine pH 8.9 (JBL Scientific), 10 mM MgCl2, 5 mM zinc acetate dihydrate and 5 mM N-hydroxyethyl-ethylene-diamine-triacetic acid). […] Fluorescence at […] was measured using a microplate fluorometer (Dynateck) exciting at […]. […]

IC90 [µg/mL] | Structure (SMILES)
0.2 (≈ 0.947 µM) | Nc1ccn([C@H]2CC[C@@H](CO)O2)c(=O)n1 [ddC, 2′,3′-dideoxycytidine]
